This note sets out measurements from PubChem BioAssay AID1320 (NMMLSC, 2008).

Active and inactive are the calls of the source. No rule for the calls is given here.

The target in one experiment is Bcl-2-related protein A1 (Homo sapiens) (UniProt Q16548). The experiment can be described thus: Bfl-1/Bim complex disruptors – biochemical, multiplexed, bead-based flow cytometry, dose response (AID 1320). As to percent span (inhibition): test concentration not given here. Conditions: Bim peptide-Bfl-1 binding, fluorescence. Background: Flow cytometry measures light scatter and fluorescence of single cells or particles in a stream.
Sequence of Bcl-2-related protein A1 (Homo sapiens) (Q16548 whole entry, looked up): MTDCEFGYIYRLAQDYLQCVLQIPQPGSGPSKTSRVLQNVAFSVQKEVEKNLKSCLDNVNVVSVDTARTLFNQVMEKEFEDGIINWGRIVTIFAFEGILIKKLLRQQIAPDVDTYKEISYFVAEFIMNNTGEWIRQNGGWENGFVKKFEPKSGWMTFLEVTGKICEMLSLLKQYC
As to `COc1ccc(N2C(=O)C(Cl)=C(Nc3c(C)n(C)n(-c4ccccc4)c3=O)C2=O)cc1`, the EC50 entry is “inactive”.

The experiment is the same for the next values; noted with them: Bim peptide-Bfl-1 binding, fluorescence.
As to `CCOCCCNc1nc(=S)[nH]c2cc(OC)c(OC)cc12`, the “percent span (inhibition)” value is “inactive”.
On the same count and under the same terms, the entry for `Cc1cc(N2CCN(C)CC2)nc2ccc(NC(=S)N3CCCCC3)cc12` is “inactive”; for `CCN1CCN(CC(=O)c2c[nH]c3ccc(C)cc23)CC1` it is “inactive”; for `CN1N=C(C(=O)N2CCCC(C(=O)c3cccc(C(F)(F)F)c3)C2)CCC1=O` (centres undefined) it is “inactive”.
On the same count and under the same terms, the entry for `CCOc1cc(/C=N/NC(N)=O)ccc1OCC(=O)Nc1ccc(C)c(C)c1` is “inactive”; for `CCn1c(C)c(/C=N/Nc2nc3ccccc3s2)c2ccccc21` it is “inactive”; for `Cc1cc(NC(=O)CCCC(=O)NCc2ccccc2)no1` it is “inactive”.
For the compound `COc1ccc(N=C2NC(=O)/C(=C\C=C\c3ccco3)S2)cc1`, the “percent span (inhibition)” value was “inactive”.
In the case of `COC(=O)c1ccc(/C=N/NC(=O)CC(=O)NCc2cccnc2)cc1`, the “percent span (inhibition)” value is “inactive”.
The same measure, in the same setting: for `O=C(Nc1ccccc1)Nc1ccc2ncoc2c1` the value was “inactive”.
The same measure, in the same setting: for `CCNC(=S)Nc1ccc(OCC)cc1` the value was “inactive”; for `Clc1ccc2c(N/N=C/c3ccc(Br)cc3)ccnc2c1`, “inactive”; for `COc1ccc(CN(C)CC(=O)NC(C)c2ccccc2)c(OC)c1` (centres undefined), “inactive”.
The same measure, in the same setting: for `Cc1ccc(-c2cc(-c3ccccc3Cl)c(C#N)c(N)n2)o1` the value was “inactive”; for `O=C(NCCc1ccccc1)c1ccc2nc(-c3ccco3)c(-c3ccco3)nc2c1`, “inactive”.
Consider `O=[N+]([O-])c1ccc2[nH]nc(-c3ccccc3)c2c1`, for which the “percent span (inhibition)” value is “inactive”.
As for `COC(=O)Cc1ccc(NC(=S)N2CCN(c3cccc(O)c3)CC2)cc1`, the “percent span (inhibition)” value is “inactive”.
Consider `CC1=NN(c2ccc(C)cc2)C(=O)/C1=C\c1ccc(Br)s1`, for which the “percent span (inhibition)” value is “inactive”.
Same read-out and setting: the entry for `CCN(CC)c1ccc(NC(=O)c2ccccc2)cc1S(=O)(=O)Nc1ccccc1OC` is “inactive”.
On the same count and under the same terms, the entry for `CCOc1ccccc1/C=N/NC(=O)CNC(=O)COc1ccccc1` is “inactive”.
Same read-out and setting: the entry for `CC(NC(=O)Nc1ccccn1)N1C(=O)C2C3C=CC(C3)C2C1=O` (centres undefined) is “inactive”; for `O=C(COc1ccccc1)N1CCN(c2ncnc3c2cnn3-c2ccccc2)CC1` it is “inactive”.
As to `O=C(Cc1ccccc1)N/N=C/c1cccn1-c1ccc([N+](=O)[O-])cc1`, the “percent span (inhibition)” value was “inactive”.
Same read-out and setting: the entry for `CCCCN(C(=O)CCC(=O)Nc1cc(C)on1)C(C(=O)NC(C)(C)C)c1cccc(OC)c1OC` (centres undefined) is “inactive”; for `COc1ccc(-c2noc(COc3ccc4c(c3)OCO4)n2)cc1OC` it is “inactive”.
Regarding `Cc1ccc(S(=O)(=O)N2CCCCC2)cc1NC(=O)COC(=O)c1ccccc1F`, the “percent span (inhibition)” value is “inactive”.
In the case of `CCOc1cc(NC(=S)NC)c(OCC)cc1NC(=O)c1ccc(OC)cc1`, the “percent span (inhibition)” value was “inactive”.
The same measure, in the same setting: for `Cc1cc(N/C(=N/S(=O)(=O)c2cc(F)ccc2F)c2ccccc2)n(-c2ccccc2)n1` the value was “inactive”; for `Cc1ccc(-c2cc(C(=O)Nc3cc(C(=O)O)ccc3C)c3ccccc3n2)cc1`, “inactive”; for `Cc1cccc(-n2c(-c3ccncc3)n[nH]c2=S)c1`, “inactive”.
Consider `O=C1NCCN1C(=O)N(c1ccccc1)c1ccccc1`, for which the “percent span (inhibition)” value is “inactive”.
The same measure, in the same setting: for `Cc1cccc(NC(=S)N2CCn3cccc3C2c2cccnc2)c1` (centres undefined) the value was “inactive”.
The same measure, in the same setting: for `CCOc1ccc(CNc2ccc(N3CCCC3)cc2)cc1` the value was “inactive”; for `CCOCCOc1nc2c(c(=O)n(C)c(=O)n2C)n1CCc1ccccc1`, “inactive”.
On the same count and under the same terms, for `O=C(Oc1ccc(-c2cnc3ccccc3n2)cc1)c1cccc([N+](=O)[O-])c1` the value was “inactive”; for `CCOc1cc(CNc2ccc(N3CCCCC3)cc2)cc(Br)c1OCC(=O)NC(C)(C)C`, “inactive”; for `O=C(CC1NCCNC1=O)Nc1cccc([N+](=O)[O-])c1` (centres undefined), “inactive”.
As for `O=C(Nc1ccc(Cl)cn1)Nc1ccccc1F`, the “percent span (inhibition)” value was “inactive”.
Same read-out and setting: the entry for `CCSc1ncnc2sc(C)c(C)c12` is “inactive”; for `O=C(c1ccccc1NS(=O)(=O)c1ccc(Br)s1)N1CCCC1` it is “inactive”.
Still for that read-out and setting: for `COC(=O)c1[nH]c2ccccc2c1NC(=O)c1ccccc1[N+](=O)[O-]` the value was “inactive”.
Turning to `CC(C)NS(=O)(=O)c1ccc(OCC(=O)Nc2ccc(F)cc2)cc1`, the “percent span (inhibition)” value was “inactive”.
The same measure, in the same setting: the entry for `Cc1ccccc1OCC(=O)N/N=C/c1ccccn1` is “inactive”; for `O=C(CSc1nnc(-c2ccccc2)c(-c2ccccc2)n1)N1CCc2ccccc21` it is “inactive”.
Still for that read-out and setting: the entry for `Cc1cccc(C(=O)N2CCC(c3nc(-c4ccc(S(=O)(=O)N5CCOCC5)cc4)no3)CC2)c1` is “inactive”.
The same measure, in the same setting: the entry for `CCOC(=O)c1ccc(Nc2nc(C(=O)OCC)nc3ccccc23)cc1` is “inactive”; for `Cc1ccc(Nc2nc(C)cs2)cc1` it is “inactive”; for `CCN(CC)c1ccc(-c2nn3c(-c4cccnc4)nnc3s2)cc1` it is “inactive”.
As for `Cc1nn(-c2ccc(Cl)c(Cl)c2)c(C)c1C(=O)O`, the “percent span (inhibition)” value was “inactive”.
Turning to `COc1ccc(N2CCN(C(CNS(=O)(=O)c3ccc4c(c3)OCCO4)c3ccco3)CC2)cc1` (centres undefined), the “percent span (inhibition)” value is “inactive”.
With `CN1CCN(c2ccc(N)cc2)CC1`, the “percent span (inhibition)” value is “inactive”.
Same read-out and setting: the entry for `OCCC1CN(Cc2nc3c(s2)CCCC3)CCN1Cc1ccsc1` (centres undefined) is “inactive”; for `CNC(=O)c1sc(-c2ccccn2)nc1C` it is “inactive”.
As to `CC(C)Cc1cc(-c2ccco2)c(C#N)c(N)n1`, the “percent span (inhibition)” value is “inactive”.
On the same count and under the same terms, for `COc1ccc(-n2c(=O)c3ccccc3c3ccccc3c2=O)c(OC)c1` the value was “inactive”; for `O=C1c2ccccc2C(=O)N1c1cccc2cccnc12`, “inactive”.
On to `Cc1ccc(S(=O)(=O)N(C)CC(=O)N2CCc3ccccc32)cc1`, for which the “percent span (inhibition)” value is “inactive”.
Still for that read-out and setting: the entry for `O=C(COC(=O)CCCN=C1NS(=O)(=O)c2ccccc21)NC(=O)NC1CCCC1` is “inactive”; for `CCN1CCN(c2ccc(NC(=O)c3ccc4c(c3)[nH]c(=O)n4Cc3ccc(OC)cc3)cc2)CC1` it is “inactive”; for `OC(COc1ccc2cc(Br)ccc2c1)CN1CCOCC1` (centres undefined) it is “inactive”.
With `Cc1cccc(N2CCN(C(=S)Nc3ccc4nc(N5CCN(C)CC5)cc(C)c4c3)CC2)c1C`, the “percent span (inhibition)” value was “inactive”.
Still for that read-out and setting: the entry for `c1ccc(Nc2nc(-c3ccncc3)cs2)cc1` is “inactive”; for `O=C(CCl)Nc1cccc2ncccc12` it is “inactive”.
Still for that read-out and setting: the entry for `Cc1ccc(Nc2nc(-c3c(C)nc4ncccn34)cs2)cc1` is “inactive”; for `O=C(NNC(=O)C12CC3CC(CC(C3)C1)C2)c1ccco1` it is “inactive”.
Same read-out and setting: the entry for `CCN1CCN(c2cc(C)c3cc(NC(=S)N4CCCCC4)ccc3n2)CC1` is “inactive”; for `COc1ccccc1-n1c(-c2ccc(Cl)cc2)c[nH]c1=S` it is “inactive”; for `Cc1nnc(NCc2n[nH]c(=O)c3ccccc23)c2ccccc12` it is “inactive”.
`CC(C(=O)Nc1ccc([N+](=O)[O-])cc1)N1CCN(C/C=C/c2ccccc2)CC1` (centres undefined): the “percent span (inhibition)” value was “inactive”.
As for `Cc1cc(-c2csc(N)n2)c(C)n1CCC(C)C`, the “percent span (inhibition)” value is “inactive”.
Turning to `COc1ccc(C2CC(=O)C3=C(C2)Nc2ccccc2NC3c2coc3ccccc3c2=O)cc1OC` (centres undefined), the “percent span (inhibition)” value is “inactive”.
Still for that read-out and setting: for `CNC(=O)/C(C#N)=C/c1c(N(Cc2ccccc2)Cc2ccccc2)nc2c(C)cccn2c1=O` the value was “inactive”.
Regarding `CCC(CC)C(=O)Nc1cccc(S(=O)(=O)c2cccc(NC(=O)C(CC)CC)c2)c1`, the “percent span (inhibition)” value is “inactive”.
As to `Cc1occc1C(=O)NNC(=S)NCc1ccccc1`, the “percent span (inhibition)” value was “inactive”.
Still for that read-out and setting: the entry for `N=C1C(c2nc3ccccc3s2)=C(O)CN1Cc1ccccc1` is “inactive”; for `COc1ccc(C(=S)N2CCCCCC2)cc1` it is “inactive”.
The same measure, in the same setting: the entry for `O=C(C1=NN[C@@H]2C(=O)N(c3cccc(F)c3)C(=O)[C@H]12)c1ccc2ccccc2n1` is “inactive”.
The same measure, in the same setting: the entry for `COc1ccc(NC(=O)c2cccs2)cc1` is “inactive”; for `Cc1cc(-c2csc(N)n2)c(C)n1C` it is “inactive”.
On to `O=C(OCC(=O)c1ccc[nH]1)c1ccccc1`, for which the “percent span (inhibition)” value is “inactive”.
On the same count and under the same terms, the entry for `CCOc1ccccc1-n1c(=O)c2ccccc2c2ccccc2c1=O` is “inactive”.
`Cc1cc(C)c2nc3nc(C)cc(C)c3c(N)c2c1`: the “percent span (inhibition)” value was “inactive”.
The same measure, in the same setting: the entry for `CC1Nc2ccccc2C(=O)N1NS(=O)(=O)c1ccccc1` (centres undefined) is “inactive”; for `O=C(OCc1nc2ccccc2[nH]1)C12CC3CC(CC(C3)C1)C2` it is “inactive”.
Same read-out and setting: the entry for `Clc1ccc(N=c2ssnc2Cl)nc1` is “inactive”.
As to `COCCN=c1scc(-c2cccs2)n1/N=C/c1ccc(O)c(O)c1O`, the “percent span (inhibition)” value is “inactive”.
On the same count and under the same terms, the entry for `CN(/N=C/C=C/c1ccccc1)C1=NS(=O)(=O)c2ccccc21` is “inactive”.
For `O=C(Nc1cccc(Cl)c1)Nc1ccnc(-c2cccnc2)n1`, the “percent span (inhibition)” value was “inactive”.
